The results in this text go back to ChEMBL document CHEMBL1641379, “PEGylated derivatives of cystamine as enhanced treatments for nephropathic cystinosis” (Bioorg Med Chem Lett, 2011).

Each structure is given as a SMILES string. The source made the active and inactive calls. The calls are words filed in the database; no cut-off is given here.

Data set [1] is described as follows: Cytotoxicity against human cystinotic fibroblast at 50 uM after 72 hrs by alamar blue assay. Type of data set: cell-based. A general note: Alamar Blue is a resazurin reagent that responds to reducing activity.
Data set [2] deals with Fibroblast. Briefly: Antinephropathic cystinosis activity in human cystinotic fibroblast assessed as decrease in cystine level at 50 uM after 24 hrs by Bradford reagent method. Type of data set: functional, cell-based.

In the case of `COCCOCCOCCNC(=O)CCCC(=O)NCCSSCCNC(=O)CCCC(=O)NCCOCCOCCOC`, the Activity entry in data set [1] is recorded as “Non-toxic”. Further, the inhibition result in data set [2] is “Active”.

For the molecule `COCCOCCOCCNC(=O)CCC(=O)NCCSSCCNC(=O)CCC(=O)NCCOCCOCCOC`, in data set [1], the Activity entry was “Non-toxic”. The inhibition entry in data set [2] was “Active”.

`COCCOCCOCCOCCNC(=O)CCC(=O)NCCSSCCNC(=O)CCC(=O)NCCOCCOCCOCCOC`: the Activity result in data set [1] was “Non-toxic”. Further, the inhibition result in data set [2] was “Active”.

In the case of `NCCS` [CYSTEAMINE], in data set [1], the Activity entry is on record as “Non-toxic”. Further, the inhibition entry in data set [2] was “Active”.

For the molecule `COCCOCCOCCOCCNC(=O)CCCC(=O)NCCSSCCNC(=O)CCCC(=O)NCCOCCOCCOCCOC`, in data set [2], the inhibition result was “Active”.
